Results taken from ChEMBL document CHEMBL4420076, “Amylin and calcitonin receptor agonist” (2017).
Numbered stars: 1 amine (or outer) side, 2 acyl side, 3 side chain; on linkers, the order of the positions; unused ones are H or OH. Side chains are listed from the residue outwards. Peptide text beside a SMILES is read from it. * marks the point of attachment. C20 diacid = O=C(O)CCCCCCCCCCCCCCCCCCC(=O)*; γGlu = O=C(O)[C@H](CCC(=O)[*:2])N[*:1]

Tests used:
[1] = molecular target: T1, Amylin receptor AMY3; CALCR/RAMP3 (Homo sapiens, UniProt O60896+P30988); experiment: Agonist activity at human amylin receptor expressed in BHK570 cells co-expressing RAMP3 assessed as increase in intracellular cAMP concentration incubated for 3 hrs in absence of albumin by CRE luciferase reporter gene assay; format: functional, cell-based
T1 sequence (P30988 whole entry): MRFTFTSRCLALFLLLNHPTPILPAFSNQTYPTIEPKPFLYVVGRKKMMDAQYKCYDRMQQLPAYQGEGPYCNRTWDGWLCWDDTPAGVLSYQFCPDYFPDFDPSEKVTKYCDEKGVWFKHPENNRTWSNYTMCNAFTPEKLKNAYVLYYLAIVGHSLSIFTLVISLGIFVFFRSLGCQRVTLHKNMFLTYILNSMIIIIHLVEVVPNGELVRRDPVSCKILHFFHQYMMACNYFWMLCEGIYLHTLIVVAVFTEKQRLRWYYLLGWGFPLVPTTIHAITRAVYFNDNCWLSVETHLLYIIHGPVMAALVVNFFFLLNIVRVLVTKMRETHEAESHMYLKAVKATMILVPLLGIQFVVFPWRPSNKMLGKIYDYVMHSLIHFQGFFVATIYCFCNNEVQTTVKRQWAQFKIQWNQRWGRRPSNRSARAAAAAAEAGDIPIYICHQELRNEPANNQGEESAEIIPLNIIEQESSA
T1 sequence (O60896 whole entry): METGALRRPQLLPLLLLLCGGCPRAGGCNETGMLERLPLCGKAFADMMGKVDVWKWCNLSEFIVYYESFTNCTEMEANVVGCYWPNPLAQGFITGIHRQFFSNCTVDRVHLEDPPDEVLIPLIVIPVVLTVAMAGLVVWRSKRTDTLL

[2] = molecular target: T2, Calcitonin receptor (Homo sapiens, UniProt P30988); experiment: Agonist activity at human calcitonin receptor expressed in BHK570 cells assessed as increase in intracellular cAMP concentration incubated for 3 hrs in absence of albumin by CRE luciferase reporter gene assay; format: functional, cell-based
T2 sequence (P30988 whole entry): T1 sequence (P30988 whole entry)

[3] = molecular target: T1, Amylin receptor AMY3; CALCR/RAMP3; experiment: Agonist activity at human amylin receptor expressed in BHK570 cells co-expressing RAMP3 assessed as increase in intracellular cAMP concentration incubated for 3 hrs in presence of 10% FBS by CRE luciferase reporter gene assay; format: functional, cell-based
[4] = molecular target: T2, Calcitonin receptor; experiment: Agonist activity at human calcitonin receptor expressed in BHK570 cells assessed as increase in intracellular cAMP concentration incubated for 3 hrs in presence of 10% FBS by CRE luciferase reporter gene assay; format: functional, cell-based
[5] = Solubility in 100 mM glycylglycine buffer at pH 3.0 incubated for 18 hrs by UPLC analysis; format: physicochemical
[6] = Solubility in 100 mM glycylglycine buffer at pH 4.0 incubated for 18 hrs by UPLC analysis; format: physicochemical
[7] = Solubility in 100 mM bistrispropane buffer at pH 6.0 incubated for 18 hrs by UPLC analysis; format: physicochemical
[8] = Solubility in 100 mM glycylglycine buffer at pH 5.0 incubated for 18 hrs by UPLC analysis; format: physicochemical
[9] = Solubility in 100 mM bistrispropane buffer at pH 6.5 incubated for 18 hrs by UPLC analysis; format: physicochemical
[10] = Solubility in 100 mM bistrispropane buffer at pH 7.0 incubated for 18 hrs by UPLC analysis; format: physicochemical
[11] = Solubility in 100 mM bistrispropane buffer at pH 7.5 incubated for 18 hrs by UPLC analysis; format: physicochemical
[12] = Solubility in 100 mM bistrispropane buffer at pH 8.0 incubated for 18 hrs by UPLC analysis; format: physicochemical
[13] = molecular target: T1, Amylin receptor AMY3; CALCR/RAMP3; experiment: Displacement of [125I]-labeled rat amylin from human amylin receptor expressed in BHK570 cell membranes co-expressing RAMP3 incubated for 120 mins by scintillation proximity assay
[14] = molecular target: T2, Calcitonin receptor; experiment: Displacement of [125I]-labeled human calcitonin from human calcitonin receptor expressed in BHK tkts13 cell membranes incubated for 1 hr by scintillation proximity assay
[15] = molecular target: T3, Amylin receptor AMY3; CALCR/RAMP3 (Rattus norvegicus, UniProt P32214+Q9JJ73); experiment: Displacement of [125I]-labeled rat amylin from rat amylin receptor expressed in BHK tkts13 cell membranes co-expressing RAMP3 incubated for 120 mins by scintillation proximity assay
T3 sequence (P32214 whole entry): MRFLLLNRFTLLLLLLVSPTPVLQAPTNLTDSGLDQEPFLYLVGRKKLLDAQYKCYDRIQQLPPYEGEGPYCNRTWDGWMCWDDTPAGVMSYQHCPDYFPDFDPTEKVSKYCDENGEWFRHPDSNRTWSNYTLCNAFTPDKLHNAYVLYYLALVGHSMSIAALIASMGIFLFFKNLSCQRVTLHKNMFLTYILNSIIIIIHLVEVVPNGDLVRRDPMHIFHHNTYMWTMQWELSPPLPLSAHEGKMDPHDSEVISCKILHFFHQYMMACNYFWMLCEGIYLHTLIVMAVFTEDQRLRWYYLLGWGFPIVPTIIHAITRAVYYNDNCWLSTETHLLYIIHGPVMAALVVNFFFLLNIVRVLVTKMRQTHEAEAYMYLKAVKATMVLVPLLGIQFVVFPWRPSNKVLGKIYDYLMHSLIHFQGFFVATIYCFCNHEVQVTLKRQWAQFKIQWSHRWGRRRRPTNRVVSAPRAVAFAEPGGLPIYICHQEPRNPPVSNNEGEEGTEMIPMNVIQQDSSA
T3 sequence (Q9JJ73 whole entry): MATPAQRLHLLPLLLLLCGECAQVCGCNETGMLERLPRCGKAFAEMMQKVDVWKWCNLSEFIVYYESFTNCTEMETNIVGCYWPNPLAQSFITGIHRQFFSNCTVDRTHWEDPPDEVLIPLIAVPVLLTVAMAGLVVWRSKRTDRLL

[16] = test system: Rattus norvegicus; experiment: Reduction in food intake in Sprague-Dawley rat at 3 nmol/kg measured 0 to 24 hrs post dose relative to control; format: functional; design: scale not given: the % may be the effect or the level left
[17] = test system: Rattus norvegicus; experiment: Reduction in food intake in Sprague-Dawley rat at 3 nmol/kg measured 24 to 48 hrs post dose relative to control; format: functional; design: scale not given: the % may be the effect or the level left
[18] = molecular target: T1, Amylin receptor AMY3; CALCR/RAMP3; experiment: Displacement of [125I]-labeled rat amylin from human amylin receptor expressed in BHK tkts13 whole cells co-expressing RAMP3 incubated for 60 mins by scintillation proximity assay; format: cell-based

Row | EC50 [1] [nM] | EC50 [2] [nM] | EC50 [3] [nM] | EC50 [4] [nM] | solubility at 18 h [5] [µM] | solubility at 18 h [6] [µM] | solubility at 18 h [7] [µM] | solubility at 18 h [8] [µM] | solubility at 18 h [9] [µM] | solubility at 18 h [10] [µM] | solubility at 18 h [11] [µM] | solubility at 18 h [12] [µM] | IC50 [13] [nM] | IC50 [14] [nM] | IC50 [15] [nM] | IC50 [18] [nM] | SMILES | Activity [16] [%] | Activity [17] [%]
1 | 0.021 | 0.028 | 0.1 | 0.044 | ≥ 200 | ≥ 200 | ≥ 200 | ≥ 200 | ≥ 200 | ≥ 200 | ≥ 200 | ≥ 200 | 0.074 | 0.046 | 0.115 | – | CC(=O)N[C@@H](C)C(=O)N[C@@H](CO)C(=O)N[C@@H](CCC(=O)O)C(=O)N[C@@H](CC(C)C)C(=O)N[C@@H](CO)C(=O)N[C@H](C(=O)N[C@@H](C)C(=O)N[C@@H](C)C(=O)N[C@@H](CC(C)C)C(=O)NCC(=O)N[C@@H](CCCNC(=N)N)C(=O)N[C@@H](CC(C)C)C(=O)N[C@@H](CO)C(=O)N[C@@H](C)C(=O)N[C@@H](CCCCNC(=O)CC[C@H](NC(=O)CCCCCCCCCCCCCCCCCCC(=O)O)C(=O)O)C(=O)N[C@@H](CC(C)C)C(=O)N[C@@H](Cc1cnc[nH]1)C(=O)N[C@@H](CCC(=O)O)C(=O)N[C@@H](CC(C)C)C(=O)N[C@@H](C)C(=O)N[C@H](C(=O)N[C@@H](CC(C)C)C(=O)N1CCC[C@H]1C(=O)N[C@@H](CCCNC(=N)N)C(=O)N[C@H](C(=O)N[C@@H](CCC(=O)O)C(=O)N[C@H](C(=O)NCC(=O)N[C@@H](CO)C(=O)NCC(=O)N[C@@H](CO)C(=O)N1CCC[C@H]1C(N)=O)[C@@H](C)O)[C@@H](C)O)[C@@H](C)O)[C@@H](C)O (Ac-ASELSTAALGRLSAK([γGlu-C20 diacid])LHELATLPRTETGSGSP-NH2) | – | –
2 | 0.017 | 0.012 | – | 0.048 | ≥ 200 | ≥ 200 | ≥ 200 | ≥ 200 | ≥ 200 | ≥ 200 | ≥ 200 | ≥ 200 | 0.565 | 0.097 | 1.53 | 0.697 | CC(C)C[C@H](NC(=O)[C@H](C)NC(=O)[C@H](C)NC(=O)[C@@H](NC(=O)[C@H](CO)NC(=O)[C@H](CC(C)C)NC(=O)[C@H](CCC(=O)O)NC(=O)[C@H](CO)NC(=O)[C@H](C)NC(=O)CC[C@H](NC(=O)CCCCCCCCCCCCCCCCCCC(=O)O)C(=O)O)[C@@H](C)O)C(=O)NCC(=O)N[C@@H](Cc1cnc[nH]1)C(=O)N[C@@H](CC(C)C)C(=O)N[C@@H](CO)C(=O)N[C@@H](C)C(=O)N[C@@H](CCC(=O)O)C(=O)N[C@@H](CC(C)C)C(=O)N[C@@H](Cc1cnc[nH]1)C(=O)N[C@@H](CCC(=O)O)C(=O)N[C@@H](CC(C)C)C(=O)N[C@@H](C)C(=O)N[C@H](C(=O)N[C@@H](CC(C)C)C(=O)N1CCC[C@H]1C(=O)N[C@@H](CCCNC(=N)N)C(=O)N[C@H](C(=O)N[C@@H](CCC(=O)O)C(=O)N[C@H](C(=O)NCC(=O)N[C@@H](CO)C(=O)NCC(=O)N[C@@H](CO)C(=O)N1CCC[C@H]1C(N)=O)[C@@H](C)O)[C@@H](C)O)[C@@H](C)O ({C20 diacid-γGlu}-ASELSTAALGHLSAELHELATLPRTETGSGSP-NH2) | 17 | 11
3 | – | 0.041 | 0.1 | 0.037 | ≥ 200 | ≥ 200 | ≥ 200 | ≥ 200 | ≥ 200 | ≥ 200 | ≥ 200 | ≥ 200 | 0.141 | 0.102 | 0.026 | 2.02 | CC(C)C[C@H](NC(=O)[C@H](C)NC(=O)[C@H](C)NC(=O)[C@@H](NC(=O)[C@H](CO)NC(=O)[C@H](CC(C)C)NC(=O)[C@H](CCC(=O)O)NC(=O)[C@H](CO)NC(=O)[C@H](C)NC(=O)CC[C@H](NC(=O)CCCCCCCCCCCCCCCCCCC(=O)O)C(=O)O)[C@@H](C)O)C(=O)NCC(=O)N[C@@H](CCCNC(=N)N)C(=O)N[C@@H](CC(C)C)C(=O)N[C@@H](CO)C(=O)N[C@@H](C)C(=O)N[C@@H](CCC(=O)O)C(=O)N[C@@H](CC(C)C)C(=O)N[C@@H](Cc1cnc[nH]1)C(=O)N[C@@H](CCC(=O)O)C(=O)N[C@@H](CC(C)C)C(=O)N[C@@H](C)C(=O)N[C@H](C(=O)N[C@@H](Cc1ccc(O)cc1)C(=O)N1CCC[C@H]1C(=O)N[C@@H](CCCNC(=N)N)C(=O)N[C@H](C(=O)N[C@@H](CCC(=O)O)C(=O)N[C@H](C(=O)NCC(=O)N[C@@H](CO)C(=O)NCC(=O)N[C@@H](C)C(=O)N1CCC[C@H]1C(N)=O)[C@@H](C)O)[C@@H](C)O)[C@@H](C)O ({C20 diacid-γGlu}-ASELSTAALGRLSAELHELATYPRTETGSGAP-NH2) | – | –
4 | 0.041 | 0.027 | – | 0.099 | ≥ 200 | ≥ 200 | ≥ 200 | – | ≥ 200 | ≥ 200 | ≥ 200 | ≥ 200 | 0.166 | 0.15 | 0.026 | 0.142 | CC(C)C[C@H](NC(=O)CNC(=O)[C@H](CO)NC(=O)[C@H](C)NC(=O)CC[C@H](NC(=O)CCCCCCCCCCCCCCCCCCC(=O)O)C(=O)O)C(=O)N[C@@H](CO)C(=O)N[C@H](C(=O)N[C@@H](C)C(=O)N[C@@H](C)C(=O)N[C@@H](CC(C)C)C(=O)NCC(=O)N[C@@H](CCCNC(=N)N)C(=O)N[C@@H](CC(C)C)C(=O)N[C@@H](CO)C(=O)N[C@@H](CCC(N)=O)C(=O)N[C@@H](CCC(=O)O)C(=O)N[C@@H](CC(C)C)C(=O)N[C@@H](Cc1cnc[nH]1)C(=O)N[C@@H](CCC(=O)O)C(=O)N[C@@H](CC(C)C)C(=O)N[C@@H](CCC(N)=O)C(=O)N[C@H](C(=O)N[C@@H](Cc1ccc(O)cc1)C(=O)N1CCC[C@H]1C(=O)N[C@@H](Cc1cnc[nH]1)C(=O)N[C@H](C(=O)N[C@@H](CCC(=O)O)C(=O)N[C@H](C(=O)NCC(=O)N[C@@H](CO)C(=O)NCC(=O)N[C@H](C(=O)N[C@@H](Cc1ccc(O)cc1)C(N)=O)[C@@H](C)O)[C@@H](C)O)[C@@H](C)O)[C@@H](C)O)[C@@H](C)O ({C20 diacid-γGlu}-ASGLSTAALGRLSQELHELQTYPHTETGSGTY-NH2) | 20 | 14
